Biological target: T1, human insuline receptor (Ins-R) (Homo sapiens, UniProt P06213)
T1 construct: GST-tagged recombinant kinase domain of the human insuline receptor; GST; purchased ProQinase, Freiburg, Germany; host or cells: SF-9 cells
Assay: InsR HTRF assay (selectivity vs. Tie2 assay 2)
Type: biochemical
Conditions: IC50 assay 4/IC50 assay 2
Procedure: Inhibitory activity of compounds against the kinase activity of the insulin receptor was quantified employing the Ins-R HTRF assay as described in the following paragraphs.
GST-tagged recombinant kinase domain of the human insuline receptor (Ins-R, purchase from ProQinase, Freiburg, Germany) expressed in SF-9 cells was used as kinase. As substrate for the kinase reaction biotinylated poly-(Glu,Tyr) (Cis biointernational, France) was used.
Ins-R was incubated for 20 min at 22° C. in the presence of different concentrations of test compounds in 5 μl assay buffer [50 mM Hepes/NaOH pH 7, 15 mM MnCl2, 1 mM dithiothreitol, 0.1 μM sodium ortho-vanadate, 0.015% (v/v) PEG20000, 10 μM adenosine-tri-phosphate (ATP), 0.3 μg/ml substrate, 1% (v/v) dimethylsulfoxide]. The concentration of Ins-R was adjusted depending of the activity of the enzyme lot and was chosen appropriate to have the assay in the linear range, typical concentrations were in the range of 10 pg/μL. The reaction was stopped by the addition of 5 μl of a solution of HTRF detection reagents (0.1 μM streptavidine-XLent and 1 nM PT66-Eu-Chelate, an europium-chelate labelled anti-phospho-tyrosine antibody from Perkin Elmer) in an aqueous EDTA-solution (80 mM EDTA, 0.2% (w/v) bovine serum albumin in 50 mM HEPES/NaOH pH 7.0).
The resulting mixture was incubated 1 h at 22° C. to allow the binding of the biotinylated phosphorylated peptide to the streptavidine-XLent and the PT66-Eu-Chelate. Subsequently the amount of phosphorylated substrate was evaluated by measurement of the resonance energy transfer from the PT66-Eu-Chelate to the streptavidine-XLent. Therefore, the fluorescence emissions at 620 nm and 665 nm after excitation at 350 nm was measured in a HTRF reader, e.g. a Rubystar (BMG Labtechnologies, Offenburg, Germany) or a ViewLux (Perkin-Elmer). The ratio of the emissions at 665 nm and at […] was taken as the measure for the amount of phosphorylated substrate. The data were normalised (enzyme reaction without inhibitor=0% inhibition, all other assay components but no enzyme=100% inhibition) and IC50 values were calculated by a 4 parameter fit using an inhouse software.

T1 sequence (P06213 1023-1298 limits assumed): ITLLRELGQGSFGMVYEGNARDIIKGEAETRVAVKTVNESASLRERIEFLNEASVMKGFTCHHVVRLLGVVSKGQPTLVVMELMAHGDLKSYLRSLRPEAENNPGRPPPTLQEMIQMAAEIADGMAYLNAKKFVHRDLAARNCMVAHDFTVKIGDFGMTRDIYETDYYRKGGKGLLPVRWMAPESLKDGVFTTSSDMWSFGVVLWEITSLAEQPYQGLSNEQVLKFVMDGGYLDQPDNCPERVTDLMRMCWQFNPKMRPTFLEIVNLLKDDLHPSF

Selectivity vs. InsR [fold] | SMILES
>50 | CC(C)c1cc(NC(=O)Nc2ccc(-c3cncc4c3cnn4C)cc2)n(-c2cccc(F)c2)n1 [Example 15.1, 1-[2-(3-Fluoro-phenyl)-5-isopropyl-2H-pyrazol-3-yl]-3-[4-(1-methyl-1H-pyrazolo[3,4-c]pyridin-4-yl)-phenyl]-urea]
>50 | CN1CCN(Cc2ccc(NC(=O)Nc3ccc(-c4cncc5c4cnn5CCO)cc3)cc2C(F)(F)F)CC1 [Example 8.6, 1-{4-[1-(2-Hydroxy-ethyl)-1H-pyrazolo[3,4-c]pyridin-4-yl]-phenyl}-3-[4-(4-methyl-piperazin-1-ylmethyl)-3-trifluoromethyl-phenyl]-urea]
>50 | Cn1ncc2c(-c3ccc(NC(=O)Nc4cc(C(F)(F)F)ccc4Cl)cc3)cncc21 [Example 1.13, 1-(2-Chloro-5-trifluoromethyl-phenyl)-3-[4-(1-methyl-1H-pyrazolo[3,4-c]pyridin-4-yl)-phenyl]-urea]
>50 | CN(C)C1CCN(c2ccc(C(F)(F)F)cc2NC(=O)Nc2ccc(-c3cncc4c3cnn4C)cc2)C1 (stereo not drawn) [Example 13.12, 1-[2-(3-Dimethylamino-pyrrolidin-1-yl)-5-trifluoromethyl-phenyl]-3-[4-(1-methyl-1H-pyrazolo[3,4-c]pyridin-4-yl)-phenyl]-urea]
>50 | CN(C)c1ccc(C(F)(F)F)cc1NC(=O)Nc1ccc(-c2cncc3c2cnn3C)cc1 [Example 13.11, 1-(2-Dimethylamino-5-trifluoromethyl-phenyl)-3-[4-(1-methyl-1H-pyrazolo[3,4-c]pyridin-4-yl)-phenyl]-urea]
>50 | Cn1ncc2c(-c3ccc(NC(=O)Nc4cc(C(C)(C)C)nn4-c4cncc(F)c4)c(F)c3)cncc21 [Example 15.13, 1-[5-tert-Butyl-2-(5-fluoro-pyridin-3-yl)-2H-pyrazol-3-yl]-3-[2-fluoro-4-(1-methyl-1H-pyrazolo[3,4-c]pyridin-4-yl)-phenyl]-urea]
>50 | CN1CCN(Cc2ccc(NC(=O)Nc3ccc(-c4cncc5c4cnn5C)cc3)cc2C(F)(F)F)CC1 [Example 6.4, 1-[4-(4-Methyl-piperazin-1-ylmethyl)-3-trifluoromethyl-phenyl]-3-[4-(1-methyl-1H-pyrazolo[3,4-c]pyridin-4-yl)-phenyl]-urea]
>50 | COCCn1ncc2c(-c3ccc(NC(=O)Nc4cccc(C(F)(F)F)c4)c(F)c3)cncc21 [Example 12.4, 1-{2-Fluoro-4-[1-(2-methoxy-ethyl)-1H-pyrazolo[3,4-c]pyridin-4-yl]-phenyl}-3-(3-trifluoromethyl-phenyl)-urea]
>50 | O=C(Nc1ccc(-c2cncc3c2cnn3CCO)cc1F)Nc1cc(C(F)(F)F)ccc1F [Example 8.1, 1-{2-Fluoro-4-[1-(2-hydroxy-ethyl)-1H-pyrazolo[3,4-c]pyridin-4-yl]-phenyl}-3-(2-fluoro-5-trifluoromethyl-phenyl)-urea]
>50 | Cc1cc(-c2cncc3c2cnn3C)ccc1NC(=O)Nc1cccc(C(F)(F)F)c1 [Example 4.1, 1-[2-Methyl-4-(1-methyl-1H-pyrazolo[3,4-c]pyridin-4-yl)-phenyl]-3-(3-trifluoromethyl-phenyl)-urea]
>50 | Cn1ncc2c(-c3ccc(NC(=O)Nc4cc(C(C)(C)C)on4)cc3)cncc21 [Example 13.2, 1-(5-tert-Butyl-isoxazol-3-yl)-3-[4-(1-methyl-1H-pyrazolo[3,4-c]pyridin-4-yl)-phenyl]-urea]
>50 | CCc1cccc(NC(=O)Nc2ccc(-c3cncc4c3cnn4C)cc2)c1 [Example 1.5, 1-(3-Ethyl-phenyl)-3-[4-(1-methyl-1H-pyrazolo[3,4-c]pyridin-4-yl)-phenyl]-urea]
>50 | CN(C)CCN(C)c1ccc(C(F)(F)F)cc1NC(=O)Nc1ccc(-c2cncc3c2cnn3C)cc1 [Example 13.13, 1-{2-[(2-Dimethylamino-ethyl)-methyl-amino]-5-trifluoromethyl-phenyl}-3-[4-(1-methyl-1H-pyrazolo[3,4-c]pyridin-4-yl)-phenyl]-urea]
>50 | Cn1ncc2c(-c3ccc(NC(=O)Nc4cc(C(F)(F)F)ccc4F)cc3)cncc21 [Example 1.2, 1-(2-Fluoro-5-trifluoromethyl-phenyl)-3-[4-(1-methyl-1H-pyrazolo[3,4-c]pyridin-4-yl)-phenyl]-urea]
>50 | Cn1nc(C(C)(C)C)cc1NC(=O)Nc1ccc(-c2cncc3c2cnn3C)cc1 [Example 14.3, 1-(5-tert-Butyl-2-methyl-2H-pyrazol-3-yl)-3-[4-(1-methyl-1H-pyrazolo[3,4-c]pyridin-4-yl)-phenyl]-urea]
>50 | Cn1ncc2c(-c3ccc(NC(=O)Nc4cc(C(F)(F)F)ccn4)c(F)c3)cncc21 [Example 14.5, 1-[2-Fluoro-4-(1-methyl-1H-pyrazolo[3,4-c]pyridin-4-yl)-phenyl]-3-(4-trifluoromethyl-pyridin-2-yl)-urea]
>50 | Cn1ncc2c(-c3ccc(NC(=O)Nc4cccc(C(F)(F)F)c4)c(F)c3)cncc21 [Example 3.1, 1-[2-Fluoro-4-(1-methyl-1H-pyrazolo[3,4-c]pyridin-4-yl)-phenyl]-3-(3-trifluoromethyl-phenyl)-urea]
>50 | O=C(Nc1ccc(-c2cncc3c2cnn3CCO)cc1)Nc1cc(C(F)(F)F)ccc1F [Example 8.2, 1-(2-Fluoro-5-trifluoromethyl-phenyl)-3-{4-[1-(2-hydroxy-ethyl)-1H-pyrazolo[3,4-c]pyridin-4-yl]-phenyl}-urea]
>50 | O=C(Nc1cccc(C(F)(F)F)c1)Nc1ccc(-c2cncc3c2cnn3CCO)cc1F [Example 8.5, 1-{2-Fluoro-4-[1-(2-hydroxy-ethyl)-1H-pyrazolo[3,4-c]pyridin-4-yl]-phenyl}-3-(3-trifluoromethyl-phenyl)-urea]
>50 | Cn1ncc2c(-c3ccc(NC(=O)Nc4cccc(C(F)(F)F)c4)cc3)cncc21 [Example 1.4, 1-[4-(1-Methyl-1H-pyrazolo[3,4-c]pyridin-4-yl)-phenyl]-3-(3-trifluoromethyl-phenyl)-urea]
>50 | COc1cccc(-n2nc(C(C)(C)C)cc2NC(=O)Nc2ccc(-c3cncc4c3cnn4C)cc2)c1 [Example 15.5, 1-[5-tert-Butyl-2-(3-methoxy-phenyl)-2H-pyrazol-3-yl]-3-[4-(1-methyl-1H-pyrazolo[3,4-c]pyridin-4-yl)-phenyl]-urea]
>50 | Cn1ncc2c(-c3ccc(NC(=O)Nc4cc(C(C)(C)C)nn4-c4cncc(F)c4)cc3)cncc21 [Example 15.12, 1-[5-tert-Butyl-2-(5-fluoro-pyridin-3-yl)-2H-pyrazol-3-yl]-3-[4-(1-methyl-1H-pyrazolo[3,4-c]pyridin-4-yl)-phenyl]-urea]
>50 | CCn1ncc2c(-c3ccc(NC(=O)Nc4cc(C)ccc4F)c(F)c3)cncc21 [Example 11.3, 1-[4-(1-Ethyl-1H-pyrazolo[3,4-c]pyridin-4-yl)-2-fluoro-phenyl]-3-(2-fluoro-5-methyl-phenyl)-urea]
>50 | Cn1ncc2c(-c3ccc(NC(=O)Nc4cc(C(C)(C)C)nn4-c4ccncc4)cc3)cncc21 [Example 15.10, 1-(5-tert-Butyl-2-pyridin-4-yl-2H-pyrazol-3-yl)-3-[4-(1-methyl-1H-pyrazolo[3,4-c]pyridin-4-yl)-phenyl]-urea]
>50 | COCCn1ncc2c(-c3ccc(NC(=O)Nc4cc(C)ccc4F)cc3)cncc21 [Example 12.3, 1-(2-Fluoro-5-methyl-phenyl)-3-{4-[1-(2-methoxy-ethyl)-1H-pyrazolo[3,4-c]pyridin-4-yl]-phenyl}-urea]
>50 | Cn1ncc2c(-c3ccc(NC(=O)Nc4cc(C(F)(F)F)ccn4)cc3)cncc21 [Example 1.9, 1-[4-(1-Methyl-1H-pyrazolo[3,4-c]pyridin-4-yl)-phenyl]-3-(4-trifluoromethyl-pyridin-2-yl)-urea]
>25 | CN(C(=O)Nc1cccc(C(F)(F)F)c1)c1ccc(-c2cncc3c2cnn3C)cc1 [Example 6.1, 1-Methyl-1-[4-(1-methyl-1H-pyrazolo[3,4-c]pyridin-4-yl)-phenyl]-3-(3-trifluoromethyl-phenyl)-urea]

From patent US20090062273A1, “3-H-pyrazolopyridines and salts thereof, pharmaceutical compositions comprising same, methods of preparing same and uses of same” (priority 2006, published 2009)
